Reference: PubChem BioAssay AID1963825 (Molecular Pharmacology Branch, DTP, NCI, 2024)

Test: Anticancer human tumor 997537-175-T-J1-PDC patient-derived colon adenocarcinoma cell line growth inhibition [POLQ]
Conditions: 997537-175-T-J1-PDC complex spheroid viability, combination with POLQ inhibitors; for IC50: curve of first compound; for viability, T/C: stronger effect = lower value
Summary of the method: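 Complex spheroid viability model combining PDC tumour cells with endothelial (HUVEC) and MSC stromal cells. Novobiocin, ART-558 or RP6685 were tested singly and in combination with standard and investigational anticancer drugs. Each was titrated in half-log steps from near clinical Cmax, or from 10 microM where Cmax was unknown.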

[1] = second compound 0.0316 µM, first compound 0.0316 µM
[2] = second compound 0.0316 µM, first compound 0.1 µM
[3] = second compound 0.1 µM, first compound 0.0316 µM
[4] = second compound 0.1 µM, first compound 0.1 µM
[5] = second compound 0.316 µM, first compound 0.0316 µM
[6] = second compound 0.316 µM, first compound 0.1 µM
[7] = second compound 1 µM, first compound 0.0316 µM
[8] = second compound 1 µM, first compound 0.1 µM
[9] = second compound 3.16 µM, first compound 0.0316 µM
[10] = second compound 3.16 µM, first compound 0.1 µM
[11] = second compound 10 µM, first compound 0.0316 µM
[12] = second compound 10 µM, first compound 0.1 µM
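Further: luminescence signal used as a surrogate for viable cells; spheroids exposed to drugs for seven days before readout.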

CC[C@@]1(O)C(=O)OCc2c1cc1n(c2=O)Cc2cc3c(CN(C)C)c(O)ccc3nc2-1 + Nc1ccc(C#CCN(C(=O)Cc2ncc(C(F)(F)F)cc2C(F)(F)F)c2ccc(F)cc2)nn1
IC50 (second compound 0.0316 µM): > 100 nM | IC50 (second compound 0.1 µM): > 100 nM | IC50 (second compound 0.316 µM): 90.8 nM | IC50 (second compound 1 µM): > 100 nM | IC50 (second compound 3.16 µM): > 100 nM | IC50 (second compound 10 µM): > 100 nM | viability, T/C (second compound 0.0316 µM, first compound 0.000316 µM): 104% | viability, T/C (second compound 0.0316 µM, first compound 0.001 µM): 94.6% | viability, T/C (second compound 0.0316 µM, first compound 0.00316 µM): 104% | viability, T/C (second compound 0.0316 µM, first compound 0.01 µM): 111% | viability, T/C [1]: 94.7% | viability, T/C [2]: 66.3% | viability, T/C (second compound 0.1 µM, first compound 0.000316 µM): 101% | viability, T/C (second compound 0.1 µM, first compound 0.001 µM): 91% | viability, T/C (second compound 0.1 µM, first compound 0.00316 µM): 101% | viability, T/C (second compound 0.1 µM, first compound 0.01 µM): 103% | viability, T/C [3]: 83.2% | viability, T/C [4]: 58.3% | viability, T/C (second compound 0.316 µM, first compound 0.000316 µM): 104% | viability, T/C (second compound 0.316 µM, first compound 0.001 µM): 90.9% | viability, T/C (second compound 0.316 µM, first compound 0.00316 µM): 107% | viability, T/C (second compound 0.316 µM, first compound 0.01 µM): 101% | viability, T/C [5]: 77.3% | viability, T/C [6]: 47.5% | viability, T/C (second compound 1 µM, first compound 0.000316 µM): 93.3% | viability, T/C (second compound 1 µM, first compound 0.001 µM): 89.8% | viability, T/C (second compound 1 µM, first compound 0.00316 µM): 102% | viability, T/C (second compound 1 µM, first compound 0.01 µM): 101% | viability, T/C [7]: 83.9% | viability, T/C [8]: 57.2% | viability, T/C (second compound 3.16 µM, first compound 0.000316 µM): 95.7% | viability, T/C (second compound 3.16 µM, first compound 0.001 µM): 98.2% | viability, T/C (second compound 3.16 µM, first compound 0.00316 µM): 107% | viability, T/C (second compound 3.16 µM, first compound 0.01 µM): 100% | viability, T/C [9]: 79% | viability, T/C [10]: 60.6% | viability, T/C (second compound 10 µM, first compound 0.000316 µM): 96.7% | viability, T/C (second compound 10 µM, first compound 0.001 µM): 99.4% | viability, T/C (second compound 10 µM, first compound 0.00316 µM): 116% | viability, T/C (second compound 10 µM, first compound 0.01 µM): 107% | viability, T/C [11]: 81.3% | viability, T/C [12]: 58.5%

COc1cccc2c1C(=O)c1c(O)c3c(c(O)c1C2=O)CC(O)(C(=O)CO)CC3OC1CC(N)C(O)C(C)O1 (centres undefined) + COC1C(OC(N)=O)C(O)C(Oc2ccc3c(O)c(NC(=O)c4ccc(O)c(CC=C(C)C)c4)c(=O)oc3c2C)OC1(C)C
IC50 (second compound 0.0316 µM): 2490 nM | IC50 (second compound 0.1 µM): 1660 nM | IC50 (second compound 0.316 µM): 2220 nM | IC50 (second compound 1 µM): 3230 nM | IC50 (second compound 3.16 µM): 2030 nM | IC50 (second compound 10 µM): 2770 nM | viability, T/C [1]: 114% | viability, T/C [2]: 100% | viability, T/C (second compound 0.0316 µM, first compound 0.316 µM): 98% | viability, T/C (second compound 0.0316 µM, first compound 1 µM): 84.8% | viability, T/C (second compound 0.0316 µM, first compound 3.16 µM): 40.2% | viability, T/C (second compound 0.0316 µM, first compound 10 µM): 7.93% | viability, T/C [3]: 102% | viability, T/C [4]: 114% | viability, T/C (second compound 0.1 µM, first compound 0.316 µM): 95.6% | viability, T/C (second compound 0.1 µM, first compound 1 µM): 75.4% | viability, T/C (second compound 0.1 µM, first compound 3.16 µM): 18.1% | viability, T/C (second compound 0.1 µM, first compound 10 µM): 10.4% | viability, T/C [5]: 101% | viability, T/C [6]: 99.8% | viability, T/C (second compound 0.316 µM, first compound 0.316 µM): 102% | viability, T/C (second compound 0.316 µM, first compound 1 µM): 96.6% | viability, T/C (second compound 0.316 µM, first compound 3.16 µM): 29.2% | viability, T/C (second compound 0.316 µM, first compound 10 µM): 8.56% | viability, T/C [7]: 94.7% | viability, T/C [8]: 89.8% | viability, T/C (second compound 1 µM, first compound 0.316 µM): 88% | viability, T/C (second compound 1 µM, first compound 1 µM): 95.1% | viability, T/C (second compound 1 µM, first compound 3.16 µM): 50.8% | viability, T/C (second compound 1 µM, first compound 10 µM): 9.76% | viability, T/C [9]: 106% | viability, T/C [10]: 119% | viability, T/C (second compound 3.16 µM, first compound 0.316 µM): 75.4% | viability, T/C (second compound 3.16 µM, first compound 1 µM): 77.6% | viability, T/C (second compound 3.16 µM, first compound 3.16 µM): 34.8% | viability, T/C (second compound 3.16 µM, first compound 10 µM): 13.1% | viability, T/C [11]: 96.5% | viability, T/C [12]: 99.3% | viability, T/C (second compound 10 µM, first compound 0.316 µM): 107% | viability, T/C (second compound 10 µM, first compound 1 µM): 97.4% | viability, T/C (second compound 10 µM, first compound 3.16 µM): 43.9% | viability, T/C (second compound 10 µM, first compound 10 µM): 7.86%
